According to EP4763837A1, “PHOTOCHROMIC COMPOUND, CURABLE COMPOSITION, OPTICAL ARTICLE, LENS, AND EYEGLASSES” (TOKUYAMA CORPORATION, priority 2023, dated 2025):
“And” between values parts separate entries of the source, which are not always exact repeats. Equal entries are not always repeated.

Assay: Photochromic property of photochromic laminate made by coating method
Type: physicochemical
Conditions: for Residual ratio / Color developing density at 23°C: laminate by coating method; for Residual ratio: A96/A0 x 100 after 96 hours accelerated degradation, xenon weather meter X25; for Color developing density at 23°C: absorbance difference after 240 seconds irradiation at the maximum absorption wavelength of the same line
In short: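 Compound at 0.25 mmol per 100 g methacrylate monomer mix, spin-coated 40 µm on a primed thiourethane lens, photocured 90 s under N2, then 110°C for 1 h. λmax and A23 measured after 240 s irradiation at 23°C; τ1/2 is time to half-fade after irradiation stops. Residual ratio A96/A0 after 96 h xenon weathering.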

Residual ratio | Color developing density at 23°C | Color fading half-life at 23°C [min] | Compound
47% and 50% | 1.65 - and 0.83 - | – | COc1ccc(C2(c3ccc(OC)cc3)C=Cc3c4c(c5cc(N6CCOCC6)c(OC)cc5c3O2)-c2ccccc2C4(C)C)cc1 [Formula (A), reference compound]
37% and 41% | 1.29 - and 0.70 - | 0.967 | CCC1(OC)c2ccccc2-c2c1c1c(c3cc(OC)c(N4CCOCC4)cc23)OC(c2ccc(OC)cc2)(c2ccc(OC)cc2)C=C1 (centres unmarked) [Formula (B), reference compound]
55% and 57% | – | 1.83 | CCCC1(CC)c2ccccc2-c2c1c1c(c3cc(OC)c(N4CCOCC4)cc23)OC(c2ccc(OC)cc2)(c2ccc(OC)cc2)C=C1 (centres unmarked) [Formula (14-1)]
53% and 55% | – | – | CCCCCCC1(CC)c2ccccc2-c2c1c1c(c3cc(OC)c(N4CCOCC4)cc23)OC(c2ccc(OC)cc2)(c2ccc(OC)cc2)C=C1 (centres unmarked) [Formula (18-1)]
71% | 1.16 - | 1.32 | CCC1(C)c2ccccc2-c2c1c1c(c3cc(OC)c(N(C)c4ccccc4)cc23)OC(c2ccc(OC)cc2)(c2ccc(OC)cc2)C=C1 (centres unmarked) [Formula (9-1)]
47% and 51% | – | – | CCCCCCCCCCCC1(C)c2ccccc2-c2c1c1c(c3cc(OC)c(N4CCOCC4)cc23)OC(c2ccc(OC)cc2)(c2ccc(OC)cc2)C=C1 (centres unmarked) [Formula (19-1)]
55% and 58% | – | 2 | CCCCC1(CCC)c2ccccc2-c2c1c1c(c3cc(OC)c(N4CCOCC4)cc23)OC(c2ccc(OC)cc2)(c2ccc(OC)cc2)C=C1 (centres unmarked) [Formula (6-2)]
